Measurements as given in the NIST ThermoML archive (doi:10.1021/je400803f).

Test: xn = mol fraction of the nth substance listed
Settings: 101 kPa, Liquid, Vibrating tube method

CCCC[N+]1(C)CCCC1.FC(F)(F)C(F)(F)[P-](F)(F)(F)(C(F)(F)C(F)(F)F)C(F)(F)C(F)(F)F + CC(=O)N(C)C
mass density [kg/m3]
Settings	293.15 K	298.15 K	303.15 K	308.15 K	313.15 K	318.15 K	323.15 K
x1 = 0.0182	983.51	978.8	974.05	969.23	964.38	959.48	954.43
x1 = 0.0658	1076.12	1071.23	1066.29	1061.3	1056.27	1051.2	1046.01
x1 = 0.099	1128.83	1123.84	1118.81	1113.75	1108.63	1103.46	1098.22
x1 = 0.1925	1243.41	1238.24	1233.05	1227.86	1222.59	1217.27	1211.86
x1 = 0.2995	1334.81	1329.56	1324.29	1318.96	1313.61	1308.22	1302.76
x1 = 0.4032	1399.72	1394.36	1389.05	1383.7	1378.3	1372.86	1367.34
x1 = 0.5012	1446.97	1441.77	1436.59	1431.01	1425.38	1420.2	1414.53
x1 = 0.6048	1487.12	1482	1476.86	1470.97	1465.48	1460.22	1454.65
x1 = 0.7078	1520.04	1514.92	1509.86	1504.04	1498.52	1492.71	1487.58
x1 = 0.806	1546.68	1541.65	1536.23	1530.12	1524.91	1519.13	1513.85
x1 = 0.8469	1556.58	1551.46	1546.01	1539.99	1534.65	1528.99	1523.64
x1 = 0.9176	1572.41	1567.01	1561.51	1555.89	1550.24	1544.79	1539.24
